{
  "source": "patent US9655362B2",
  "about": "“Fungicidal composition and method for controlling plant diseases” (ISHIHARA SANGYO KAISHA, LTD., priority 2003, dated 2017)",
  "key": {"Sphaerotheca cucurbitae": {"system": "Sphaerotheca cucurbitae", "assay": "Test on preventive effect against cucumber powdery mildew", "assay_type": "in vivo", "design": "scale not given here", "procedure": "Cucumber (cultivar: Suyo) was cultivated in a plastic pot having a diameter of 7.5 cm, and when it reached 1.5-leaf stage, 10 ml of a chemical solution having the compound of the present invention adjusted to a prescribed concentration, was applied by a spray gun. After the chemical solution dried, a suspension of conidia of Sphaerotheca cucurbitae was sprayed and inoculated and maintained in a constant temperature chamber at 20° C. From 6 to 11 days after the inoculation, the area of sporulation was investigated, and the disease rate was determined in the same manner as in Test Example 3, and the results are shown in Tables 54 to 96. The average lesion area in the non-treated plot was determined in the same manner as for the treated plot except that water was applied by a spray gun instead of the chemical solution.\nFurther, theoretical values by the Colby's formula are shown in brackets in Tables 54 to 96."}, "Erysiphe graminis": {"system": "Erysiphe graminis", "assay": "Test on preventive effect against wheat powdery mildew", "assay_type": "in vivo", "design": "key: % = treated/untreated average lesion area ×100", "procedure": "Wheat (cultivar: […] After the chemical solution dried, conidia of Erysiphe graminis were dusted and inoculated and maintained in a constant temperature chamber at 20° C. […] The average lesion area in the non-treated plot was determined in the same manner as for the treated plot except that water was applied by a spray gun instead of the chemical solution. Disease rate=(a/b)×100 a: average lesion area in the treated plot b: average lesion area in the non-treated plot Theoretical values were calculated in accordance with the Colby's formula. The fungicidal composition of the present invention has a synergistic effect regarding the test on preventive effect against wheat powdery mildew, when the experimental value is lower than the theoretical value."}, "[1]": {"conditions": "other fungicide alone, concentration 31 ppm"}, "[2]": {"conditions": "other fungicide alone, concentration 63 ppm"}, "[3]": {"conditions": "single agent, 8 ppm, area of sporulation 6 to 11 days after inoculation"}, "[4]": {"conditions": "other fungicide alone, concentration 8 ppm"}, "[5]": {"conditions": "other fungicide alone, dose 3.1 g/ha"}, "[6]": {"conditions": "other fungicide alone, dose 6.3 g/ha"}, "[7]": {"conditions": "other fungicide alone, dose 12.5 g/ha"}, "[8]": {"conditions": "other fungicide alone, concentration 2 ppm"}, "[9]": {"conditions": "other fungicide alone, concentration 4 ppm"}, "[10]": {"conditions": "Compound No. alone, concentration 16 ppm"}, "[11]": {"conditions": "single agent, 4 ppm, area of sporulation 6 to 11 days after inoculation"}, "[12]": {"conditions": "single agent, 1 ppm, area of sporulation 6 to 11 days after inoculation"}, "[13]": {"conditions": "single agent, 2 ppm, area of sporulation 6 to 11 days after inoculation"}, "[14]": {"conditions": "other fungicide alone, dose 1.6 g/ha"}, "[15]": {"conditions": "other fungicide alone, concentration 16 ppm"}},
  "note": "Where “and” joins values, the source holds several entries; their conditions need not be identical. Equal entries are not always repeated.",
  "data": [
    {"compound": "Cc1ccc(-c2c(Cl)nc(C#N)n2S(=O)(=O)N(C)C)cc1", "note": "[Cyazofamid]", "values": [
      {"measurement": "Disease rate", "setting": "Sphaerotheca cucurbitae; [1]", "result": 100},
      {"measurement": "Disease rate", "setting": "Sphaerotheca cucurbitae; [2]", "result": 100}
    ]},
    {"compound": "CC1(C)COC(C)(CCCc2ccc(Cl)cc2)N1C(=O)n1ccnc1", "note": "(centres unmarked) [Oxpoconazole]", "values": [
      {"measurement": "Disease rate", "setting": "Sphaerotheca cucurbitae; [3]", "result": 44.5}
    ]},
    {"compound": "Clc1ccc(CSC(Cn2cncn2)=Nc2ccc(Cl)cc2Cl)cc1", "note": "[Imibenconazole]", "values": [
      {"measurement": "Disease rate", "setting": "Sphaerotheca cucurbitae; [4]", "result": 100}
    ]},
    {"compound": "COc1cc(C)c(C(=O)c2c(OC)ccc(Br)c2C)c(OC)c1OC", "note": "[Metrafenone]", "values": [
      {"measurement": "Disease rate", "setting": "Erysiphe graminis; [5]", "result": 100},
      {"measurement": "Disease rate", "setting": "Erysiphe graminis; [6]", "result": 80.0},
      {"measurement": "Disease rate", "setting": "Erysiphe graminis; [7]", "result": 60.0}
    ]},
    {"compound": "O=c1c2cc(F)ccc2nc(-n2cncn2)n1-c1ccc(Cl)cc1Cl", "note": "[Fluquinconazole]", "values": [
      {"measurement": "Disease rate", "setting": "Erysiphe graminis; other fungicide alone, dose 50 g/ha", "result": 30.0},
      {"measurement": "Disease rate", "setting": "Erysiphe graminis; other fungicide alone, dose 200 g/ha", "result": 7.5},
      {"measurement": "Disease rate", "setting": "Erysiphe graminis; other fungicide alone, dose 400 g/ha", "result": 2.5}
    ]},
    {"compound": "COc1cc(C)c(C(=O)c2c(F)ncc(C)c2I)c(OC)c1OC", "note": "[Compound No. 18, 3-(2,3,4-trimethoxy-6-methylbenzoyl)-2-fluoro-4-iodo-5-methylpyridine]", "values": [
      {"measurement": "melting point", "result": "140 to 141", "unit": "°C"}
    ]},
    {"compound": "CC(Cc1ccc(C(C)(C)C)cc1)CN1C[C@@H](C)O[C@@H](C)C1", "note": "(some centres unmarked) [Fenpropimorph]", "values": [
      {"measurement": "Disease rate", "setting": "Erysiphe graminis; other fungicide alone, dose 25 g/ha", "result": 100}
    ]},
    {"compound": "Polyoxins", "values": [
      {"measurement": "Disease rate", "setting": "Sphaerotheca cucurbitae; [1]", "result": "100 and 80.4 and 80.0"}
    ]},
    {"compound": "CCCC1COC(Cn2cncn2)(c2ccc(Cl)cc2Cl)O1", "note": "(centres unmarked) [Propiconazole]", "values": [
      {"measurement": "Disease rate", "setting": "Erysiphe graminis; [5]", "result": 100},
      {"measurement": "Disease rate", "setting": "Erysiphe graminis; [7]", "result": 11.6}
    ]},
    {"compound": "FC(F)C(F)(F)OCC(Cn1cncn1)c1ccc(Cl)cc1Cl", "note": "(centres unmarked) [Tetraconazole]", "values": [
      {"measurement": "Disease rate", "setting": "Sphaerotheca cucurbitae; [8]", "result": 56.8},
      {"measurement": "Disease rate", "setting": "Sphaerotheca cucurbitae; [9]", "result": 56.8},
      {"measurement": "Disease rate", "setting": "Erysiphe graminis; [5]", "result": 80.0},
      {"measurement": "Disease rate", "setting": "Erysiphe graminis; [6]", "result": 35.0}
    ]},
    {"compound": "CC(C)(C)C(O)C(Oc1ccc(Cl)cc1)n1cncn1", "note": "(centres unmarked) [Triadimenol]", "values": [
      {"measurement": "Disease rate", "setting": "Erysiphe graminis; [5]", "result": 65},
      {"measurement": "Disease rate", "setting": "Erysiphe graminis; [7]", "result": 19.0}
    ]},
    {"compound": "CC(C)(C)C(O)(CCc1ccc(Cl)cc1)Cn1cncn1", "note": "(centres unmarked) [Tebuconazole]", "values": [
      {"measurement": "Disease rate", "setting": "Sphaerotheca cucurbitae; [8]", "result": 56.8},
      {"measurement": "Disease rate", "setting": "Sphaerotheca cucurbitae; [9]", "result": 71.0}
    ]},
    {"compound": "CC#Cc1cc(C)nc(Nc2ccccc2)n1", "note": "[Mepanipyrim]", "values": [
      {"measurement": "Disease rate", "setting": "Sphaerotheca cucurbitae; [4]", "result": 100}
    ]},
    {"compound": "COc1cc(C)c(C(=O)c2c(OC)cncc2C(F)(F)F)c(OC)c1OC", "note": "[Compound No. 122, 4-(2,3,4-trimethoxy-6-methylbenzoyl)-3-methoxy-5-trifluoromethylpyridine]", "values": [
      {"measurement": "melting point", "result": "103 to 106", "unit": "°C"}
    ]},
    {"compound": "CC(C1CC1)C(O)(Cn1cncn1)c1ccc(Cl)cc1", "note": "(centres unmarked) [Cyproconazole]", "values": [
      {"measurement": "Disease rate", "setting": "Erysiphe graminis; [7]", "result": 15.0}
    ]},
    {"compound": "COc1cc(C)c(C(=O)c2c(Cl)cnc(Cl)c2C(F)(F)F)c(OC)c1OC", "note": "[Compound No. 39, 4-(2,3,4-trimethoxy-6-methylbenzoyl)-2,5-dichloro-3-trifluoromethylpyridine]", "values": [
      {"measurement": "Disease rate", "setting": "Sphaerotheca cucurbitae; [10]", "result": 20},
      {"measurement": "Disease rate", "setting": "Sphaerotheca cucurbitae; [11]", "result": 32.0},
      {"measurement": "Disease rate", "setting": "Sphaerotheca cucurbitae; [3]", "result": 14.2},
      {"measurement": "melting point", "result": "106 to 109", "unit": "°C"},
      {"measurement": "Disease rate", "setting": "Erysiphe graminis; Compound No. alone, dose 1.6 g/ha", "result": 58.8}
    ]},
    {"compound": "COc1cc(C)c(C(=O)c2c(OC)ncc(Br)c2Cl)c(OC)c1OC", "note": "[Compound No. 23, 3-(2,3,4-trimethoxy-6-methylbenzoyl)-5-bromo-4-chloro-2-methoxypyridine]", "values": [
      {"measurement": "Disease rate", "setting": "Sphaerotheca cucurbitae; Compound No. alone, concentration 2 ppm", "result": 100},
      {"measurement": "Disease rate", "setting": "Sphaerotheca cucurbitae; [10]", "result": 30.7},
      {"measurement": "Disease rate", "setting": "Sphaerotheca cucurbitae; [11]", "result": 79.2},
      {"measurement": "Disease rate", "setting": "Sphaerotheca cucurbitae; [3]", "result": 19.8},
      {"measurement": "Disease rate", "setting": "Sphaerotheca cucurbitae; single agent, 16 ppm, area of sporulation 6 to 11 days after inoculation", "result": 2.4},
      {"measurement": "melting point", "result": "84 to 87", "unit": "°C"}
    ]},
    {"compound": "COc1cc(C)c(C(=O)c2c(OC)cnc(Cl)c2C(F)(F)F)c(OC)c1OC", "note": "[Compound No. 40, 4-(2,3,4-trimethoxy-6-methylbenzoyl)-2-chloro-3-trifluoromethyl-5-methoxypyridine]", "values": [
      {"measurement": "Disease rate", "setting": "Sphaerotheca cucurbitae; [12]", "result": 71.0},
      {"measurement": "Disease rate", "setting": "Sphaerotheca cucurbitae; [13]", "result": 42.6},
      {"measurement": "melting point", "result": "117 to 119", "unit": "°C"}
    ]},
    {"compound": "CC1(C)CCC(Cc2ccc(Cl)cc2)C1(O)Cn1cncn1", "note": "(centres unmarked) [Metconazole]", "values": [
      {"measurement": "Disease rate", "setting": "Erysiphe graminis; [14]", "result": 44.1},
      {"measurement": "Disease rate", "setting": "Erysiphe graminis; [5]", "result": 19.6},
      {"measurement": "Disease rate", "setting": "Erysiphe graminis; [6]", "result": 4.9}
    ]},
    {"compound": "COc1cc(C)c(C(=O)c2c(OC)ncc(Cl)c2C)c(OC)c1OC", "note": "[Compound No. 35, 3-(2,3,4-trimethoxy-6-methylbenzoyl)-5-chloro-2-methoxy-4-methylpyridine]", "values": [
      {"measurement": "Disease rate", "setting": "Sphaerotheca cucurbitae; [10]", "result": 80.4},
      {"measurement": "Disease rate", "setting": "Sphaerotheca cucurbitae; [12]", "result": 56.8},
      {"measurement": "Disease rate", "setting": "Sphaerotheca cucurbitae; [13]", "result": 14.2}
    ]},
    {"compound": "CC1(C)COC(C)(CCCc2ccc(Cl)cc2)N1C(=O)n1ccnc1.CC1(C)COC(C)(CCCc2ccc(Cl)cc2)N1C(=O)n1ccnc1.O=C(O)/C=C/C(=O)O", "note": "(centres unmarked) [Oxpoconazole fumarate]", "values": [
      {"measurement": "Disease rate", "setting": "Sphaerotheca cucurbitae; [4]", "result": "100 and 80.0"},
      {"measurement": "Disease rate", "setting": "Sphaerotheca cucurbitae; [15]", "result": "100 and 60.0"},
      {"measurement": "Disease rate", "setting": "Sphaerotheca cucurbitae; [1]", "result": "45.5 and 30.0"}
    ]},
    {"compound": "CCCCCCCCCCCCc1ccc(S(=O)(=O)O)cc1.CCCCCCCCCCCCc1ccc(S(=O)(=O)O)cc1.CCCCCCCCCCCCc1ccc(S(=O)(=O)O)cc1.NC(N)=NCCCCCCCCNCCCCCCCCN=C(N)N", "note": "[Iminoctadine albesilate]", "values": [
      {"measurement": "Disease rate", "setting": "Sphaerotheca cucurbitae; [9]", "result": "85.9 and 93.8"},
      {"measurement": "Disease rate", "setting": "Sphaerotheca cucurbitae; [4]", "result": "83.9 and 60.7 and 45.0"},
      {"measurement": "Disease rate", "setting": "Sphaerotheca cucurbitae; [15]", "result": "35.3 and 30.0 and 49.4"}
    ]},
    {"compound": "CO/C=C(/C(=O)OC)c1ccccc1Oc1cc(Oc2ccccc2C#N)ncn1", "note": "[Azoxystrobin]", "values": [
      {"measurement": "Disease rate", "setting": "Sphaerotheca cucurbitae; [1]", "result": "100 and 80.4"},
      {"measurement": "Disease rate", "setting": "Sphaerotheca cucurbitae; [2]", "result": 100},
      {"measurement": "Disease rate", "setting": "Sphaerotheca cucurbitae; other fungicide alone, concentration 125 ppm", "result": 100}
    ]},
    {"compound": "Fc1ccc([C@]2(Cn3cncn3)O[C@H]2c2ccccc2Cl)cc1", "note": "(racemic) [Epoxiconazole]", "values": [
      {"measurement": "Disease rate", "setting": "Erysiphe graminis; [14]", "result": 100}
    ]}
  ]
}
